ChEMBL document CHEMBL5154877, “Novel Sphingosine Kinase 1 Inhibitor Suppresses Growth of Solid Tumor and Inhibits the Lung Metastasis of Triple-Negative Breast Cancer” (J Med Chem, 2022)
Calls of active or inactive are those of the source. The rule behind the calls is not given here.

What was measured:
[1] = test system: MDA-MB-231; experiment: Antimetastatic activity against human MDA-MB-231 cells […] assessed as downregulation of MMP-9 at 30 uM incubated for 2 to 12 hrs by western blot analysis; type: functional, cell-based; details: time 2-12 hrs
[2] = test system: HT-29; experiment: Induction of cell cycle arrest in human HT-29 cells assessed as accumulation at G0/G1 phase at 10 uM incubated for 24 hrs by PI staining based flow cytometry; type: functional
[3] = test system: HT-29; experiment: Induction of cell cycle arrest at G1 phase in human HT-29 cells assessed as increase in P21 expression at 30 uM incubated for 24 hrs by Western blot analysis; type: functional, cell-based
[4] = test system: HT-29; experiment: Induction of cell cycle arrest at G0/G1 phase in human HT-29 cells assessed as decrease in p-Rb expression at 10 to 30 uM incubated for 24 hrs by Western blot analysis; type: functional, cell-based; details: dose 10-30 µM
[5] = test system: HT-29; experiment: Induction of cell cycle arrest at G0/G1 phase in human HT-29 cells assessed as reduction in cyclinA expression at 10 to 30 uM incubated for 24 hrs by Western blot analysis; type: functional, cell-based; details: dose 10-30 µM
[6] = test system: HT-29; experiment: Induction of cell cycle arrest at G0/G1 phase in human HT-29 cells assessed as reduction in cyclinE1 expression at 10 to 30 uM incubated for 24 hrs by Western blot analysis; type: functional, cell-based; details: dose 10-30 µM
[7] = test system: HT-29; experiment: Induction of cell cycle arrest at G0/G1 phase in human HT-29 cells assessed as reduction in cyclinD1 expression at 10 to 30 uM incubated for 24 hrs by Western blot analysis; type: functional, cell-based; details: dose 10-30 µM
[8] = test system: HT-29; experiment: Induction of cell cycle arrest at G0/G1 phase in human HT-29 cells assessed as reduction in CDK6 expression at 10 to 30 uM incubated for 24 hrs by Western blot analysis; type: functional, cell-based; details: dose 10-30 µM
[9] = test system: MDA-MB-231; experiment: Induction of apoptosis in human MDA-MB-231 cells assessed as early apoptotic cells at 10 uM incubated for 48 hrs by Annexin V-FITC/PI staining based flow cytometry (reference value: 2.35 %); type: functional
[10] = test system: MDA-MB-231; experiment: Induction of apoptosis in human MDA-MB-231 cells assessed as viable cells at 10 uM incubated for 48 hrs by Annexin V-FITC/PI staining based flow cytometry (reference value: 94.3 %); type: functional; details: read-out: Activity
[11] = test system: MDA-MB-231; experiment: Induction of apoptosis in human MDA-MB-231 cells assessed as viable cells at 30 uM incubated for 48 hrs by Annexin V-FITC/PI staining based flow cytometry (reference value: 94.3 %); type: functional; details: read-out: Activity
[12] = test system: MDA-MB-231; experiment: Antimigratory activity against human MDA-MB-231 cells assessed as reduction in cell migration at 40 uM incubated for 8 hrs by crystal violet staining microscopy based transwell migration assay; type: functional
[13] = test system: MDA-MB-231; experiment: Antimigratory activity against human MDA-MB-231 cells assessed as inhibition of cell migration in human MDA-MB-231 cells at 40 uM incubated for 15 hrs by wound healing assay; type: functional, cell-based
[14] = Tmax in mouse at 20 mg/kg, po; type: ADME, organism-based; details: in vivo
[15] = Cmax in mouse at 20 mg/kg, po; type: ADME, organism-based; parameters: dose 20 mg/kg, route po; details: in vivo
[16] = AUClast in mouse at 20 mg/kg, po; type: ADME, organism-based; parameters: time 0 - last, dose 20 mg/kg, route po; details: in vivo
[17] = AUClast in mouse at 2 mg/kg, iv; type: ADME, organism-based; parameters: time 0 - last, dose 2 mg/kg, route iv; details: in vivo
[18] = Half life in mouse at 20 mg/kg, po; type: ADME, organism-based; details: in vivo
[19] = Half life in mouse at 2 mg/kg, iv; type: ADME, organism-based; details: in vivo
[20] = Clearance in mouse at 2 mg/kg, iv; type: ADME, organism-based; details: in vivo
[21] = Oral bioavailability in mouse at 20 mg/kg; type: ADME, organism-based; details: in vivo
[22] = test system: HT-29; experiment: Antitumor activity against human HT-29 cells xenografted in BALB/c mouse assessed as tumor growth inhibition at 50 mg/kg/day, ip for 3 weeks and measured every 3 days by caliper method; type: functional, organism-based
[23] = Toxicity in BALB/c mouse xenografted with human HT-29 cells assessed as change in body weight at 50 mg/kg/day, ip for 3 weeks and measured every 3 days; type: organism-based; details: in vivo, 504 h
[24] = Toxicity in BALB/c mouse xenografted with human MDA-MB-231 cells assessed as change in body weight at 50 mg/kg/day, ip for 3 weeks and measured every 3 days; type: organism-based; details: in vivo, 504 h
[25] = Toxicity in BALB/c mouse xenografted with human MDA-MB-231 cells assessed as body weight change at 100 mg/kg, ip administrated for 28 days; type: organism-based; details: in vivo, 672 h, time 28 day
[26] = test system: MDA-MB-231; experiment: Antimetastatic activity against human MDA-MB-231 cells xenografted in BALB/c mouse assessed as decrease in plasma S1P levels at 100 mg/kg, ip for 28 days; type: functional, organism-based; details: time 28.0 day
[27] = test system: MDA-MB-231; experiment: Antimetastatic activity against human MDA-MB-231 cells […] assessed as inhibition of NF-kappaB p65 phosphorylation at 30 uM incubated for 2 to 12 hrs by Western blot analysis; type: functional, cell-based; details: time 2-12 hrs
[28] = test system: MDA-MB-231; experiment: Antimetastatic activity against human MDA-MB-231 cells […] assessed as inhibition of FSCN1 phosphorylation at 30 uM incubated for 2 to 12 hrs by western blot analysis; type: functional, cell-based; details: time 2-12 hrs
[29] = test system: MDA-MB-231; experiment: Antimetastatic activity against human MDA-MB-231 cells […] assessed as upregulation of phosphorylated beta-catenin at 30 uM incubated for 2 to 12 hrs by western blot analysis; type: functional, cell-based; details: time 2-12 hrs
[30] = test system: MDA-MB-231; experiment: Induction of apoptosis in human MDA-MB-231 cells assessed as necrotic cells at 10 uM incubated for 48 hrs by Annexin V-FITC/PI staining based flow cytometry (reference value: 1.42 %); type: functional
[31] = test system: MDA-MB-231; experiment: Induction of apoptosis in human MDA-MB-231 cells assessed as late apoptotic cells at 10 uM incubated for 48 hrs by Annexin V-FITC/PI staining based flow cytometry (reference value: 1.96 %); type: functional
[32] = Half life in mouse at 10 mg/kg, ip; type: ADME, organism-based; details: in vivo
[33] = test system: MDA-MB-231; experiment: Induction of apoptosis in human MDA-MB-231 cells assessed as early apoptotic cells at 30 uM incubated for 48 hrs by Annexin V-FITC/PI staining based flow cytometry (reference value: 2.35 %); type: functional
[34] = test system: MDA-MB-231; experiment: Induction of apoptosis in human MDA-MB-231 cells assessed as late apoptotic cells at 30 uM incubated for 48 hrs by Annexin V-FITC/PI staining based flow cytometry (reference value: 1.96 %); type: functional
[35] = test system: MDA-MB-231; experiment: Induction of apoptosis in human MDA-MB-231 cells assessed as necrotic cells at 30 uM incubated for 48 hrs by Annexin V-FITC/PI staining based flow cytometry (reference value: 1.42 %); type: functional

## Cc1cc(CS(=O)(=O)c2ccccc2)cc(OCc2ccc(CN3CCC[C@@H]3CO)cc2)c1
[1]
  Activity: Active
[2]
  Activity: Active
[3]
  Activity: Active
[4]
  Activity: Active
[5]
  Activity: Active
[6]
  Activity: Active
[7]
  Activity: Active
[8]
  Activity: Active
[9]
  Activity: 4.89%
[10]
  viability at 10 µM: 85.8%
[11]
  viability at 30 µM: 65.4%
[12]
  Activity: Active
[13]
  Activity: Active
[14]
  Tmax: 15 min
[15]
  Cmax: 16.8 ng/mL
[16]
  AUC(0-t): 32.3 ng·h/mL
[17]
  AUC(0-t): 168 ng·h/mL
[18]
  half-life: 258 min
[19]
  half-life: 60.6 min
[20]
  clearance: 207 mL/min/kg
[21]
  bioavailability: 1.92%
[22]
  Activity: Active
[23]
  Activity: Non-Toxic
[24]
  Activity: Non-Toxic
[25]
  Activity: Non-Toxic
[26]
  Activity: Active
[27]
  Activity: Active
[28]
  Activity: Active
[29]
  Activity: Active
[30]
  Activity: 2.22%
[31]
  Activity: 7.11%
[32]
  half-life: 72 min
[33]
  Activity: 25.2%
[34]
  Activity: 7.47%
[35]
  Activity: 1.99%
